Tests used:
L1210 Leukemia (CDF1) = experiment: broad spectrum antitumor activity in mice, L1210 leukemia; type: in vivo; details: IP/IP
From the text: (§1) Broad Spectrum Antitumor Activity^* of 2-[2-(Diethylamino)ethyl]-7,10-dihydroxy-5-[[2-[(2-hydroxyethyl)amino]ethyl]amino]anthra[1-9-cd]pyrazol-6(2H)-one Dihydrochloride in Mice

M5076 Ovary = experiment: broad spectrum antitumor activity in mice, M5076 ovary; type: in vivo; details: IP/IP
From the text: as §1

[1] = test system: HCT-8 (human colon adenocarcinoma) cells; experiment: in vitro activity against human colon adenocarcinoma (HCT-8), cell count; type: cell-based; details: Homo sapiens; HCT-8 cells, 60-65 hrs with compound; molar quantity of drug required to kill 50% of the tumor cells; read-out: ID50 Molar
Outline: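 HCT-8 cells seeded at ~30,000 cells/ml in RPMI 1640 + 10% FCS, grown 48 hrs at 37°C, then exposed to compound 60-65 hrs. Lysed cells counted by Coulter counter; activity as percent of controls, reported as ID50 (molar quantity killing 50% of cells).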

CCN(CC)CCn1nc2c3c(c(NCCNCCO)ccc31)C(=O)c1c(O)ccc(O)c1-2 [Example 28, 2-[2-(Diethylamino)ethyl]-7,10-dihydroxy-5-[[2-[(2-hydroxyethyl)amino]ethyl]amino]anthra[1,9-cd]pyrazol-6(2H)-one]
T/C × 100 (Percent) (L1210 Leukemia (CDF1); Q01D × 09, Dose 1 mg/kg): 137%
T/C × 100 (Percent) (L1210 Leukemia (CDF1); Q01D × 09, Dose 2 mg/kg): 144%
T/C × 100 (Percent) (L1210 Leukemia (CDF1); Q01D × 09, Dose 4 mg/kg): 178%
T/C × 100 (Percent) (L1210 Leukemia (CDF1); Q01D × 09, Dose 8 mg/kg): 240%
T/C × 100 (Percent) (L1210 Leukemia (CDF1); Q01D × 09, Dose 16 mg/kg): 133%
T/C × 100 (Percent) (M5076 Ovary; Q04D × 04, Dose 1.25 mg/kg): 143%
T/C × 100 (Percent) (M5076 Ovary; Q04D × 04, Dose 2.5 mg/kg): 233%
T/C × 100 (Percent) (M5076 Ovary; Q04D × 04, Dose 5 mg/kg): 186%
T/C × 100 (Percent) (M5076 Ovary; Q04D × 04, Dose 10 mg/kg): 260%
IC50 [1]: 270 nM

— patent EP0103381B1, “Substituted anthra(1,9-cd)pyrazol-6(2H)-ones” (WARNER-LAMBERT COMPANY, priority 1982, dated 1984)
